Test results reported in PMC7180738, “Design, Synthesis and Characterization of a New Series of Fluorescent Metabotropic Glutamate Receptor Type 5 Negative Allosteric Modulators” (Molecules, 2020).

Target: T1, mGlu5bR (metabotropic glutamate receptor type 5) (Rattus norvegicus, UniProt P31424)
T1 construct: gene Grm5; mGlu5bR^NL: NanoLuc fused at the N terminus of rat mGlu5bR, expressed in HEK293T cells
Test: NanoBRET saturation binding in living HEK293T cells, displaced by […] MTEP; also NFAT-luciferase NAM assay
Format: cell-based

T1 sequence (P31424 21-1203): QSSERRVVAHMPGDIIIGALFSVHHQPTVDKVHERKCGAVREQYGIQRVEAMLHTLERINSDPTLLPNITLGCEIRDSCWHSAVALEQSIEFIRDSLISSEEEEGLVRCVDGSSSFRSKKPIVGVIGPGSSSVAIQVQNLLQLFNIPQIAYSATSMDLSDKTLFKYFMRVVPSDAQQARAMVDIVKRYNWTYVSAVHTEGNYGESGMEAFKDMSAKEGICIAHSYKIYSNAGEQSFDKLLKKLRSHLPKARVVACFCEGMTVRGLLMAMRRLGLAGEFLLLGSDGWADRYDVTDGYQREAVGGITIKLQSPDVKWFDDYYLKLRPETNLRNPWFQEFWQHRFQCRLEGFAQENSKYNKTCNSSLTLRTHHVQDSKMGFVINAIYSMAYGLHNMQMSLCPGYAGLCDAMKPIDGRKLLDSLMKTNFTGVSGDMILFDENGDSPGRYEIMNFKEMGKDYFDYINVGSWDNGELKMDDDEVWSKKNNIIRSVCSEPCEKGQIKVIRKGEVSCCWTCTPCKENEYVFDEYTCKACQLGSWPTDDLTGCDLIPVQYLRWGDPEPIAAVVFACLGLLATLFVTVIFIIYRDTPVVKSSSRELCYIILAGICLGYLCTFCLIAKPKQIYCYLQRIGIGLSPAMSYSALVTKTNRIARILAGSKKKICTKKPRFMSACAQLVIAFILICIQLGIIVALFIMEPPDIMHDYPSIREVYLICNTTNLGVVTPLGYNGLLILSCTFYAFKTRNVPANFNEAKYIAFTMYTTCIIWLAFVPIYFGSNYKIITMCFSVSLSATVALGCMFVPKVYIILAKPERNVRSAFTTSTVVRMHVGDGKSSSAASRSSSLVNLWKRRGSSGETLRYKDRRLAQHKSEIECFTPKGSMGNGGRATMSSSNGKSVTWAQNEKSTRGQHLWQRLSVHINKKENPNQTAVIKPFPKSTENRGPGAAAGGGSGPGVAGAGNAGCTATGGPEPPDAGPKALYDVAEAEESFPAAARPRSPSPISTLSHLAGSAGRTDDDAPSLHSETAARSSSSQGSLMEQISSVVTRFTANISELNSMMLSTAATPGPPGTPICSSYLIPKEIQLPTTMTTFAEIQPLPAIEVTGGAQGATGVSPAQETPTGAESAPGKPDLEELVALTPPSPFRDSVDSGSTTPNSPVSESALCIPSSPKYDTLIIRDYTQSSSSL

With `COc1ccc(C2=[N+]3C(=C(CCCCc4cn(CCOCCOCCOCCOCCOCCNC(=O)COc5cncc(C#Cc6csc(C)n6)c5)nn4)c4ccc(-c5ccc(OC)cc5)n4[B-]3(F)F)C=C2)cc1` [4a, N-(17-(4-(4-(5,5-difluoro-3,7-bis(4-methoxyphenyl)-5H-4λ^4,5λ^4-dipyrrolo [1,2-c:2’,1’-f][1,3,2]diazaborinin-10-yl)butyl)-1H-1,2,3-triazol-1-yl)-3,6,9,12,15-pentaoxaheptadecyl)-2-((5-((2-methylthiazol-4-yl)ethynyl)pyridin-3-yl)oxy)acetamide] the Kd was 0.84 ± 0.74 µM.

`COc1ccc(C2=[N+]3C(=C(CCCCc4cn(CCCCCCCCN(C)CCCCCNC(=O)COc5cncc(C#Cc6csc(C)n6)c5)nn4)c4ccc(-c5ccc(OC)cc5)n4[B-]3(F)F)C=C2)cc1` [4e, N-(5-((8-(4-(4-(5,5-difluoro-3,7-bis(4-methoxyphenyl)-5H-4λ^4,5λ^4-dipyrrolo[1,2-c:2’,1’-f][1,3,2]diazaborinin-10-yl)butyl)-1H-1,2,3-triazol-1-yl)octyl)(methyl)amino)pentyl)-2-((5-((2-methylthiazol-4-yl)ethynyl)pyridin-3-yl)oxy)acetamide] was tested, and the Kd was 1.4 ± 1.2 µM.
